Results on one compound are retold here after BindingDB's records for patent US10435400 (Shanghai Haiyan Pharmaceutical Technology, 2019).

The assay has as its target Epidermal growth factor receptor (Homo sapiens, UniProt P00533). The assay is described as follows: Wild Type EGFR and Mutant EGFR Kinase Inhibition Test.

Sequence of Epidermal growth factor receptor (P00533 whole entry): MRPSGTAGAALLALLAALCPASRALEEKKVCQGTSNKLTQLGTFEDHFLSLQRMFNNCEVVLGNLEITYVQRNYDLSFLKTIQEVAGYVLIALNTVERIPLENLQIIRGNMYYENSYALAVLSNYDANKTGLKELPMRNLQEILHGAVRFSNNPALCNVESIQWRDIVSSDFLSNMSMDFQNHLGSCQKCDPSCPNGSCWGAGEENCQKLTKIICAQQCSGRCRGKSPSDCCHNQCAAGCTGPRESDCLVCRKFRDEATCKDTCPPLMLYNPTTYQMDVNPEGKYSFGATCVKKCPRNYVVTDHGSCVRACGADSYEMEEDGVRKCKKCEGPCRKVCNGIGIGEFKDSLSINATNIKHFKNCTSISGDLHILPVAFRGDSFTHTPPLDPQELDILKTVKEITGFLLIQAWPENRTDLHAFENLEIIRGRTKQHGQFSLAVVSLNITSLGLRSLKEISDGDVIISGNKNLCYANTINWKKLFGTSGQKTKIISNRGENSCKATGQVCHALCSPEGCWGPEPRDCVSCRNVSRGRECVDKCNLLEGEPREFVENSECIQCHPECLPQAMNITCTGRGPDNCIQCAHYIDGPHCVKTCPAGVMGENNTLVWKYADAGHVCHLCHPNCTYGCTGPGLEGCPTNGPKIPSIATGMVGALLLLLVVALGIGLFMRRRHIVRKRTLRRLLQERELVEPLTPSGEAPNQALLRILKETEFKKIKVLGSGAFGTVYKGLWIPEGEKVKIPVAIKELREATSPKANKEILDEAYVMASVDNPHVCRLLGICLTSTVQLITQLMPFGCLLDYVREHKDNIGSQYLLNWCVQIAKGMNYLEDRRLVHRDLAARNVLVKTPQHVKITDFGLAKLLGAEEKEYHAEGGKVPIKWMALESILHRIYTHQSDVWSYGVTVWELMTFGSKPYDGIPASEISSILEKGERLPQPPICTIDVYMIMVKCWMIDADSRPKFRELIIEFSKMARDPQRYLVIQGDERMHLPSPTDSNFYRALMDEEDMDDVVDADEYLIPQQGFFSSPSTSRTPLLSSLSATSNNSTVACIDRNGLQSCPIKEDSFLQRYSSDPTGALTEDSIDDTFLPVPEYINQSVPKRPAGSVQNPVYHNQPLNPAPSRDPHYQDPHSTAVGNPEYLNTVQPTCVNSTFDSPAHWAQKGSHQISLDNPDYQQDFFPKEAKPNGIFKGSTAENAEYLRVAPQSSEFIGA
Protocol: After the compounds (i.e., test compounds) prepared by the above-mentioned examples described herein were added, the concentration of DMSO was 2%.The working concentration of each component in 10 μl EGFR WT kinase reaction system was: 10 μM ATP, 0.8 ng/μl EGFR WT kinase, 2 μM Tyr04 substrate.

As for `C=CC(=O)Nc1cc(Nc2ncc(Cl)c(-c3cnc4c(ccn4C)c3)n2)c(OC)cc1N1CCC(N(C)C)CC1` [US10435400, Compound Z-2], the IC50 (as a rule, the midpoint of a concentration-inhibition curve) was determined as 272 nM.
